According to US8440810B2, “Riboswitches, methods for their use, and compositions for use with riboswitches” (Yale University, priority 2002, dated 2013):
Entries after “also recorded” stand apart in the source; their conditions may differ. Where two headings read alike, the source gives them in different places.

Legend:
179 lysC RNA [1] = format: binding, B. subtilis; settings: 50 μM unlabeled compound, additional 10 hr
lysC 5′-UTR template = assay: In vitro transcription termination assay, lysC 5′-UTR; settings: 10 mM compound
80 ydhL RNA = assay: In-line probing of 80 ydhL RNA; format: binding, B. subtilis
[2] = tested on: lysC 5′-UTR fused to lacZ reporter gene; format: cell-based, B. subtilis; settings: wild-type construct, minimal medium plus 1 mM compound
179 lysC RNA [3] = assay: In-line probing of 179 lysC RNA; settings: read-out: apparent KD; lysine analogs, data not shown, RNA construct not stated
93 xpt RNA [4] = assay: In-line probing of 93 xpt RNA; format: binding, B. subtilis; settings: for modulation of spontaneous cleavage pattern: 1 μM (adenine as much as 1 mM), 93 xpt and 201 xpt
165 thiM RNA = format: binding, E. coli; settings: for structure modulation: 40 μM each compound; for Kd: thiM RNA as reported in Example 3 (FIG. 13), read-out: apparent KD
Source text: Specifically, TPP-dependent modulation of the spontaneous cleavage of RNA constructs was visualized by polyacrylamide gel electrophoresis (PAGE). […] Some RNAs were subjected to no reaction, partial digestion with alkali, or partial digestion with RNase T1 (G-specific cleavage) (see FIG. 6a). Composite plots of the fraction of RNA cleaved at specific sites versus the logarithm of the concentration of ligand (e.g. FIG. 7a) were generated to provide an estimate of the apparent KD. Fraction cleaved values were normalized relative to the highest and lowest cleavage values measured for each site.
NR, ^−OH and T1 represent RNAs subjected to no reaction, partial digestion with alkali, or partial digestion with RNase Tl (G-specific cleavage), respectively. Product bands representing cleavage after selected G residues are numbered and identified by filled arrowheads. The asterisk identifies modulation of RNA structure involving the Shine-Dalgarno (SD) sequence. Gel separations were analyzed using a phosphorimager (Molecular Dynamics) and quantitated using ImageQuant software.

91 thiM RNA = assay: Equilibrium dialysis with thiM RNA using 3H-thiamine; format: binding, E. coli; settings: 100 μM competitor (Example 2)
ribD RNA = assay: In-line probing of ribD RNA (RFN element); format: binding, B. subtilis
Protocol: To assess whether the RFN element of ribD was responsive to FMN, a fragment of the corresponding 5′-UTR was 5′-^32P labeled and incubated in the absence and presence of FMN, and the resulting fragments were analyzed by polyacrylamide gel electrophoresis (PAGE). […] To obtain values for apparent dissociation constant (apparent KD) for FMN, in-line probing assays were repeated with trace amounts of ribD RNA and increasing concentrations of FMN; the ligand concentration that correlates with half-maximal modulation of RNA structure should reflect the apparent KD.

93 xpt RNA [5] = assay: Equilibrium dialysis with 93 xpt RNA; format: binding, B. subtilis; settings: 500 nM analog
[6] = tested on: xpt-pbuX 5′-UTR fused to β-galactosidase reporter gene; assay: xpt-lacZ β-galactosidase reporter expression; format: cell-based, B. subtilis; settings: wild-type xpt construct, six-hour incubation
[7] = tested on: 93 xpt RNA (C to U mutation at position 74); format: binding, B. subtilis
[8] = tested on: wild-type ydhL riboswitch fused to β-galactosidase reporter gene; assay: ydhL-lacZ β-galactosidase reporter expression; format: cell-based, B. subtilis
[9] = tested on: xpt riboswitch variant with the C to U mutation at position 74, reporter construct; format: cell-based, B. subtilis
124 yitJ RNA = assay: In-line probing of 124 yitJ RNA; format: binding, B. subtilis
metI leader construct = format: biochemical, B. subtilis; settings: 50 μM; in all instances (yitJ, yoaD, metK, metI leaders)
[10] = tested on: 202-nucleotide leader sequence of the btuB mRNA; format: binding, Escherichia coli; settings: AdoCbl analogs of FIG. 4
Protocol: Precursor mRNA leader molecules were prepared by in vitro transcription from templates generated by PCR (see In vivo Expression Constructs and Assays section below) and 5′ ^32p-labeled using methods described previously (Soukup and Breaker, Allosteric nucleic acid catalysts. Curr. Opin. Struct. Biol. 10, […] (2000)). Approximately 20 nM of labeled RNA precursor was incubated as described in the brief description of FIG. 1. Accompanying digestions were carried out using reaction conditions similar to those described previously (Soukup and Breaker, Relationship between internucleotide linkage geometry and the stability of […]. RNA 5, 1308-1325 (1999)). […]
Metabolite-dependent conformational changes in the 202-nucleotide leader sequence of the btuB mRNA. […] The image was generated using a phosphorimager (Molecular Dynamics), and cleavage yields were quantitated by using ImageQuant software. […]
The btuB mRNA leader forms a saturable binding site for AdoCbl. […] 5′-^32P-labeled mRNA leader molecules were incubated, separated, and analyzed as described in the in the legend to FIG. 1A, and include identical control and marker lanes as indicated. […] Fraction cleaved values were normalized relative to the highest and lowest cleavage values measured for each location, including the values obtained upon incubation in the absence of AdoCbl. […]

btuB leader-lacZ fusion [11] = assay: btuB-lacZ expression assay; format: cell-based, E. coli; settings: wild-type btuB leader
btuB leader-lacZ fusion [12] = settings: from Nou and Kadner; Lundrigan and Kadner; cited from earlier work
[13] = tested on: 202-nucleotide mRNA leader (btuB); assay: Equilibrium dialysis with btuB mRNA leader; settings: 5,000 pmoles unlabeled compound added to chamber b
[14] = translational fusion, 100 μM thiamine, minimal medium

NCCCC[C@@H](N)C(=O)O [D-lysine]
restoration of equal tritium distribution by unlabeled competitor (179 lysC RNA [1]): do not restore equal distribution of tritium | induction of transcription termination (lysC 5′-UTR template): Neither D-lysine nor L-ornithine induce termination

Nc1ncc2[nH]cnc2n1 [2-aminopurine]
binding / structural modulation (80 ydhL RNA): measurable binding

c1ncc2[nH]cnc2n1 [P, purine]
binding / structural modulation (80 ydhL RNA): measurable binding

Nc1ncnc2nc(Cl)[nH]c12 [8-chloroadenine]
binding / structural modulation (80 ydhL RNA): prevents ligand binding

NCCSC[C@H](N)C(=O)O [thiosine, S-(2-aminoethyl)-L-cysteine]
repression of β-galactosidase reporter expression [2]: represses β-galactosidase expression | Kd (179 lysC RNA [3]): ~30000 nM | induction of transcription termination (lysC 5′-UTR template): cause an increase in transcription termination

Nc1nc(Br)c2[nH]cnc2n1 [2-amino-6-bromopurine]
loss in apparent KD relative to guanine (93 xpt RNA [4]): ~1,000 fold

COc1nc(N)nc2nc[nH]c12 [O^6-methylguanine]
loss in apparent KD relative to guanine (93 xpt RNA [4]): > 100 fold

Cc1ncc(C[n+]2csc(CCOP(=O)(O)O)c2C)c(N)n1 [TP, thiamine monophosphate]
structure modulation (165 thiM RNA): induce modulation | Kd (165 thiM RNA): 3000 nM

NCCC[C@H](N)C(=O)O [L-ornithine]
restoration of equal tritium distribution by unlabeled competitor (179 lysC RNA [1]): do not restore equal distribution of tritium | induction of transcription termination (lysC 5′-UTR template): Neither D-lysine nor L-ornithine induce termination

Cc1ncc(C[n+]2csc(CCO)c2C)c(=O)[nH]1 [oxythiamine]
structure modulation (165 thiM RNA): fail to induce structure modulation | reversal of 3H-thiamine shift by excess unlabeled compound (91 thiM RNA): does not significantly restore the tritium distribution to unity; also recorded: could not be reversed

Cc1cc2nc3c(=O)[nH]c(=O)nc-3n(C[C@H](O)[C@H](O)[C@H](O)CO)c2cc1C [riboflavin]
discrimination relative to FMN (ribD RNA): approximately three orders of magnitude | discrimination relative to FMN (ribD RNA; worded for FMN riboswitches): ~1,000 fold

Nc1nc2c(ncn2[C@@H]2O[C@H](CO)[C@@H](O)[C@H]2O)c(=O)[nH]1 [guanosine]
redistribution of 3H-guanine by excess unlabeled competitor (93 xpt RNA [5]): fails to restore equal distribution

Cc1ncc(C[n+]2csc(CCO)c2C)c(N)n1 [thiamine]
structure modulation (165 thiM RNA): induce modulation | Kd (165 thiM RNA): 40000 nM | reversal of 3H-thiamine shift by excess unlabeled compound (91 thiM RNA): could be eliminated | suppression of β-galactosidase activity (thiM-lacZ fusion; transcriptional fusion): not subject to suppression | thiamine-dependent suppression of β-galactosidase activity (thiM-lacZ fusion; [14]): 18 fold | modulation of β-galactosidase activity (thiC-lacZ fusion; transcriptional fusion): 16 fold | thiamine-dependent suppression of β-galactosidase activity (thiC-lacZ fusion; [14]): 110 fold

Nc1ncnc2nc[nH]c12 [adenine]
modulation of spontaneous cleavage pattern (93 xpt RNA [4]): does not alter the pattern of RNA cleavage products | apparent KD poorer than for guanine (93 xpt RNA [4]; guanine riboswitch from B. subtilis xpt): at least 100,000 fold | Kd (93 xpt RNA [4]; read-out: KD): > 300000 nM | repression of reporter expression [6]: ~4 fold | binding / structural modulation (80 ydhL RNA): specific for adenine | Kd (80 ydhL RNA; half-maximal change at sites 1 through 4, read-out: apparent KD): ~300 nM | binding / structural modulation (80 ydhL RNA; listed as A): measurable binding | structural modulation and binding in equilibrium dialysis [7]: exhibits structural modulation and binding activity | Kd ([7]; read-out: apparent KD): ~100 nM | increase in gene expression [8]: greater than 10 fold | regulation of reporter expression [9]: no change in the putative protein-dependent control

Nc1nc(N)c2[nH]cnc2n1 [2,6-DAP, 2,6-diaminopurine]
binding / structural modulation (80 ydhL RNA): measurable binding; also recorded: tightest-binding ligand

Nc1ncnc2c1ncn2[C@@H]1O[C@H](CSCC[C@H](N)C(=O)O)[C@@H](O)[C@H]1O [SAH, S-adenosylhomocysteine]
discrimination relative to SAM (124 yitJ RNA): ~100 fold | modulation of transcription termination (metI leader construct): little or no modulation of transcription termination

O=c1[nH]c(=O)c2[nH]cnc2[nH]1 [xanthine]
modulation of spontaneous cleavage pattern (93 xpt RNA [4]): induce modulation of spontaneous cleavage

13-epi-AdoCbl [compound 11]
structural modulation (spontaneous cleavage at site 2, U68) [10]: inactive | regulatory effector function on reporter gene inside cells (btuB leader-lacZ fusion [11]): inactive

O=c1[nH]cnc2nc[nH]c12 [hypoxanthine]
modulation of spontaneous cleavage pattern (93 xpt RNA [4]): induce modulation of spontaneous cleavage

CNc1ncnc2nc[nH]c12 [MA, 6-methylaminopurine]
binding / structural modulation (80 ydhL RNA): measurable binding

cyanocobalamin
regulatory effector for btuB expression (btuB leader-lacZ fusion [12]): incapable of serving as a regulatory effector | restoration of equal tritium distribution by excess unlabeled compound [13]: does not restore the ratio of tritium to unity

Nc1ncnc2c1ncn2[C@@H]1O[C@H](CSC[C@H](N)C(=O)O)[C@@H](O)[C@H]1O [SAC]
discrimination relative to SAM (124 yitJ RNA): ~10,000 fold | modulation of transcription termination (metI leader construct): little or no modulation of transcription termination
